In ChEMBL document CHEMBL1201862, “PubChem BioAssay data set” (2004):
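Cultured in 96-well plates, cells were exposed to test compound for 48 hours across five concentrations. The concentration for 50% growth inhibition is given as GI50.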 Active and inactive are the calls of the source. No stated cut-off is given here; in the data, active = GI50 up to about 1.1 µM and inactive = higher.

Legend:
Experiment in all cases: NCI-60 cell line screen, 48 h
A498 = tested on: A498
A549 = tested on: A549
HOP-62 = tested on: HOP-62
HOP-92 = tested on: HOP-92
Hs-578T = tested on: Hs-578T
MDA-MB-231 = tested on: MDA-MB-231
MDA-N = tested on: MDA-N
Malme-3M = tested on: Malme-3M
NCI-H23 = tested on: NCI-H23
NCI/ADR-RES = tested on: NCI/ADR-RES
OVCAR-4 = tested on: OVCAR-4
SF-268 = tested on: SF-268
SK-MEL-28 = tested on: SK-MEL-28
SNB-75 = tested on: SNB-75
SR = tested on: SR
U-251 = tested on: U-251
UACC-62 = tested on: UACC-62
UO-31 = tested on: UO-31
RPMI-8226 = tested on: RPMI-8226

Structure (SMILES) | GI50 (A498) | GI50 (A549) | GI50 (HOP-62) | GI50 (HOP-92) | GI50 (Hs-578T) | GI50 (MDA-MB-231) | GI50 (MDA-N) | GI50 (Malme-3M) | GI50 (NCI-H23) | GI50 (NCI/ADR-RES) | GI50 (OVCAR-4) | GI50 (SF-268) | GI50 (SK-MEL-28) | GI50 (SNB-75) | GI50 (SR) | GI50 (U-251) | GI50 (UACC-62) | GI50 (UO-31) | GI50 (RPMI-8226)
O=S1(=O)c2ccccc2N2C(c3ccccc3)=NOC2(c2ccccc2)CC1c1ccc(Br)cc1 (stereo not given) | > 100 µM (inactive) | > 100 µM (inactive) | > 100 µM (inactive) | 32.4 µM (inactive) | > 100 µM (inactive) | > 100 µM (inactive) | > 100 µM (inactive) | > 100 µM (inactive) | > 100 µM (inactive) | > 100 µM (inactive) | > 100 µM (inactive) | > 100 µM (inactive) | > 100 µM (inactive) | > 100 µM (inactive) | > 100 µM (inactive) | > 100 µM (inactive) | > 100 µM (inactive) | > 100 µM (inactive) | –
c1ccc(C/C(=N\Nc2nc3ccccc3o2)c2ccccn2)cc1 | 0.369 µM (active) | 0.437 µM (active) | 0.0354 µM (active) | 0.0281 µM (active) | 0.569 µM (active) | 0.126 µM (active) | 0.355 µM (active) | 0.0233 µM (active) | 0.0382 µM (active) | 0.0246 µM (active) | < 0.01 µM (active) | 0.0805 µM (active) | – | – | 0.0424 µM (active) | 0.198 µM (active) | 0.387 µM (active) | 0.09 µM (active) | 0.0482 µM (active)
O=C1c2c(ccc3c2CCC3)CC12Cc1cc3c(cc1C2)CCC3 | > 100 µM (inactive) | > 100 µM (inactive) | > 100 µM (inactive) | > 100 µM (inactive) | > 100 µM (inactive) | > 100 µM (inactive) | > 100 µM (inactive) | 20.1 µM (inactive) | > 100 µM (inactive) | > 100 µM (inactive) | > 100 µM (inactive) | > 100 µM (inactive) | > 100 µM (inactive) | 87.7 µM (inactive) | > 100 µM (inactive) | 70.3 µM (inactive) | – | > 100 µM (inactive) | > 100 µM (inactive)
COc1ccc2nc(/C(N)=C\C#N)ccc2c1 | – | 47.2 µM (inactive) | > 100 µM (inactive) | 91.8 µM (inactive) | 1.01 µM (active) | > 100 µM (inactive) | 45.3 µM (inactive) | > 100 µM (inactive) | 90.2 µM (inactive) | 30.8 µM (inactive) | 86.7 µM (inactive) | 33.7 µM (inactive) | > 100 µM (inactive) | > 100 µM (inactive) | 22.3 µM (inactive) | 60.5 µM (inactive) | 6.58 µM (inactive) | 32.8 µM (inactive) | 37.5 µM (inactive)
COC(=O)[C@@H]1C[C@]2(CC=C(C)C)c3ccccc3N(S(=O)(=O)c3ccccc3)[C@@H]2N1C(=O)OC | – | 11.6 µM (inactive) | 26.8 µM (inactive) | 15.1 µM (inactive) | 10.6 µM (inactive) | 20.4 µM (inactive) | 26.9 µM (inactive) | 32.5 µM (inactive) | > 100 µM (inactive) | 10.4 µM (inactive) | 18.1 µM (inactive) | 18 µM (inactive) | 47.1 µM (inactive) | 13.1 µM (inactive) | 5.33 µM (inactive) | 13.3 µM (inactive) | 4.5 µM (inactive) | 28.8 µM (inactive) | 6.67 µM (inactive)
Cc1n[nH]c(=O)c2c3c([nH]c12)-c1ccccc1C3 | > 100 µM (inactive) | > 100 µM (inactive) | > 100 µM (inactive) | > 100 µM (inactive) | > 100 µM (inactive) | 66.4 µM (inactive) | > 100 µM (inactive) | > 100 µM (inactive) | > 100 µM (inactive) | > 100 µM (inactive) | > 100 µM (inactive) | > 100 µM (inactive) | > 100 µM (inactive) | 18.7 µM (inactive) | 82.8 µM (inactive) | > 100 µM (inactive) | – | > 100 µM (inactive) | > 100 µM (inactive)
CC(NC(=O)c1ccc(NP(=O)(OCc2ccc([N+](=O)[O-])o2)N(C)CCCCCl)cc1)c1ccc(OCC2CCCCC2)c(C(N)=O)c1 (stereo not given) | 16.7 µM (inactive) | 10.6 µM (inactive) | 16.9 µM (inactive) | 2.95 µM (inactive) | 16.3 µM (inactive) | 14.9 µM (inactive) | 17.7 µM (inactive) | – | 16.9 µM (inactive) | 61.8 µM (inactive) | 12.2 µM (inactive) | 13.3 µM (inactive) | 17 µM (inactive) | 11 µM (inactive) | 10.5 µM (inactive) | 19.4 µM (inactive) | 12.6 µM (inactive) | 43.4 µM (inactive) | 4.86 µM (inactive)
